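Values below derive from 48-hour exposures of cells grown in 96-well plates, with endpoints linearly interpolated between the two concentrations bracketing the appropriate inhibition level. Abbreviation: GI50, concentration required for 50% inhibition of growth. TGI: concentration producing complete growth inhibition.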
Legend:
Test in all cases: growth of human tumour cells (NCI), 48 h
LOX IMVI melanoma = system: LOX IMVI melanoma
786-0 renal = system: 786-0 renal
SNB-19 CNS = system: SNB-19 CNS
KM12 colon = system: KM12 colon
MCF7 breast = system: MCF7 breast
A498 renal = system: A498 renal
NCI-H460 lung = system: NCI-H460 lung
UACC-62 melanoma = system: UACC-62 melanoma
SW-620 colon = system: SW-620 colon
SK-MEL-2 melanoma = system: SK-MEL-2 melanoma
NCI/ADR-RES ovarian = system: NCI/ADR-RES ovarian
OVCAR-3 ovarian = system: OVCAR-3 ovarian
SK-MEL-5 melanoma = system: SK-MEL-5 melanoma
M14 melanoma = system: M14 melanoma
ACHN renal = system: ACHN renal
K-562 leukemia = system: K-562 leukemia
NCI-H23 lung = system: NCI-H23 lung
HCT-116 colon = system: HCT-116 colon
SF-295 CNS = system: SF-295 CNS
HOP-92 NSCLC = system: HOP-92 NSCLC
HCT-15 colon = system: HCT-15 colon
MDA-MB-231 breast = system: MDA-MB-231 breast
MALME-3M melanoma = system: MALME-3M melanoma
SF-539 CNS = system: SF-539 CNS
UACC-257 melanoma = system: UACC-257 melanoma
COLO 205 colon = system: COLO 205 colon
HCC-2998 colon = system: HCC-2998 colon
SK-MEL-28 melanoma = system: SK-MEL-28 melanoma
CCRF-CEM leukemia = system: CCRF-CEM leukemia
BT-549 breast = system: BT-549 breast
U251 CNS = system: U251 CNS
TK-10 renal = system: TK-10 renal
A549 NSCLC = system: A549 NSCLC
IGROV1 ovarian = system: IGROV1 ovarian
CAKI-1 renal = system: CAKI-1 renal
EKVX NSCLC = system: EKVX NSCLC
HOP-62 NSCLC = system: HOP-62 NSCLC
MOLT-4 leukemia = system: MOLT-4 leukemia
RPMI-8226 leukemia = system: RPMI-8226 leukemia
SNB-75 CNS = system: SNB-75 CNS
OVCAR-8 ovarian = system: OVCAR-8 ovarian
T-47D breast = system: T-47D breast
HL-60(TB) leukemia = system: HL-60(TB) leukemia
HS 578T breast = system: HS 578T breast
UO-31 renal = system: UO-31 renal
SR leukemia = system: SR leukemia
SF-268 CNS = system: SF-268 CNS
OVCAR-4 ovarian = system: OVCAR-4 ovarian
SK-OV-3 ovarian = system: SK-OV-3 ovarian
OVCAR-5 ovarian = system: OVCAR-5 ovarian
SN12C renal = system: SN12C renal
HT29 colon = system: HT29 colon
NCI-H226 lung = system: NCI-H226 lung
PC-3 prostate = system: PC-3 prostate
RXF 393 renal = system: RXF 393 renal
DU-145 prostate = system: DU-145 prostate

`COc1cc2c(c(OC)c1OC)-c1ccc([O-])c(=O)cc1[C@@H](NC(C)=O)CC2.COc1cc2c(c(OC)c1OC)-c1ccc([O-])c(=O)cc1[C@@H](NC(C)=O)CC2.[Cu+2]` was tested, and the GI50 (LOX IMVI melanoma) was 4.3 µM, the TGI (LOX IMVI melanoma) was > 100 µM and the GI50 (786-0 renal) was 7.9 µM. For the same molecule, the TGI (786-0 renal) was > 100 µM, the GI50 (SNB-19 CNS) was 14.7 µM and the TGI (SNB-19 CNS) was > 100 µM. The GI50 (KM12 colon) was 1.87 µM, the TGI (KM12 colon) was 5.52 µM and the GI50 (MCF7 breast) was 3.33 µM. The TGI (MCF7 breast) was > 100 µM, the GI50 (A498 renal) was 2.41 µM and the TGI (A498 renal) was 8.53 µM. The GI50 (NCI-H460 lung) was 3.29 µM, the TGI (NCI-H460 lung) was 15.7 µM and the GI50 (UACC-62 melanoma) was 1.86 µM. The TGI (UACC-62 melanoma) was 11.4 µM, the GI50 (SW-620 colon) was 3.44 µM and the TGI (SW-620 colon) was > 100 µM. For the same molecule, the GI50 (SK-MEL-2 melanoma) was 3.59 µM, the TGI (SK-MEL-2 melanoma) was > 100 µM and the GI50 (NCI/ADR-RES ovarian) was 6.16 µM. The TGI (NCI/ADR-RES ovarian) was 51.8 µM, the GI50 (OVCAR-3 ovarian) was 2.16 µM and the TGI (OVCAR-3 ovarian) was 5.19 µM. It also gave a GI50 (SK-MEL-5 melanoma) of 2.94 µM, a TGI (SK-MEL-5 melanoma) of 12 µM and a GI50 (M14 melanoma) of 2.79 µM. The TGI (M14 melanoma) was > 100 µM, the GI50 (ACHN renal) was 7.83 µM and the TGI (ACHN renal) was > 100 µM. For the same molecule, the GI50 (K-562 leukemia) was 2.48 µM, the TGI (K-562 leukemia) was > 100 µM and the GI50 (NCI-H23 lung) was 3.73 µM. The TGI (NCI-H23 lung) was > 100 µM, the GI50 (HCT-116 colon) was 3.2 µM and the TGI (HCT-116 colon) was > 100 µM. For the same molecule, the GI50 (SF-295 CNS) was 3.1 µM, the TGI (SF-295 CNS) was > 100 µM and the GI50 (HOP-92 NSCLC) was 17.5 µM. The TGI (HOP-92 NSCLC) was > 100 µM, the GI50 (HCT-15 colon) was 3.73 µM and the TGI (HCT-15 colon) was > 100 µM. For the same molecule, the GI50 (MDA-MB-231 breast) was 3.84 µM, the TGI (MDA-MB-231 breast) was > 100 µM and the GI50 (MALME-3M melanoma) was 15 µM. For the same molecule, the TGI (MALME-3M melanoma) was > 100 µM, the GI50 (SF-539 CNS) was 1.88 µM and the TGI (SF-539 CNS) was 4.53 µM. For the same molecule, the GI50 (UACC-257 melanoma) was 12.5 µM, the TGI (UACC-257 melanoma) was > 100 µM and the GI50 (COLO 205 colon) was 2.82 µM. For the same molecule, the TGI (COLO 205 colon) was 9.19 µM, the GI50 (HCC-2998 colon) was 2.58 µM and the TGI (HCC-2998 colon) was 7.2 µM. The GI50 (SK-MEL-28 melanoma) was 7.82 µM, the TGI (SK-MEL-28 melanoma) was > 100 µM and the GI50 (CCRF-CEM leukemia) was 3.33 µM. The TGI (CCRF-CEM leukemia) was 19 µM, the GI50 (BT-549 breast) was 2.56 µM and the TGI (BT-549 breast) was > 100 µM. For the same molecule, the GI50 (U251 CNS) was 3.48 µM, the TGI (U251 CNS) was > 100 µM and the GI50 (TK-10 renal) was 9.55 µM. For the same molecule, the TGI (TK-10 renal) was > 100 µM, the GI50 (A549 NSCLC) was 6.5 µM and the TGI (A549 NSCLC) was > 100 µM. For the same molecule, the GI50 (IGROV1 ovarian) was 5.59 µM, the TGI (IGROV1 ovarian) was 47.1 µM and the GI50 (CAKI-1 renal) was 4.96 µM. For the same molecule, the TGI (CAKI-1 renal) was 63.1 µM, the GI50 (EKVX NSCLC) was 4.64 µM and the TGI (EKVX NSCLC) was > 100 µM. The GI50 (HOP-62 NSCLC) was 5.67 µM, the TGI (HOP-62 NSCLC) was > 100 µM and the GI50 (MOLT-4 leukemia) was 3.42 µM. The TGI (MOLT-4 leukemia) was 21.1 µM, the GI50 (RPMI-8226 leukemia) was 3.17 µM and the TGI (RPMI-8226 leukemia) was 38.2 µM. The GI50 (SNB-75 CNS) was 5.39 µM, the TGI (SNB-75 CNS) was > 100 µM and the GI50 (OVCAR-8 ovarian) was 3.77 µM. The TGI (OVCAR-8 ovarian) was 34.5 µM, the GI50 (T-47D breast) was 7.95 µM and the TGI (T-47D breast) was > 100 µM. For the same molecule, the GI50 (HL-60(TB) leukemia) was 2.05 µM, the TGI (HL-60(TB) leukemia) was 4.82 µM and the GI50 (HS 578T breast) was 1.94 µM. For the same molecule, the TGI (HS 578T breast) was > 100 µM, the GI50 (UO-31 renal) was 4.1 µM and the TGI (UO-31 renal) was 41.9 µM. It also gave a GI50 (SR leukemia) of 1.54 µM, a TGI (SR leukemia) of 6.89 µM and a GI50 (SF-268 CNS) of 3.89 µM. The TGI (SF-268 CNS) was 22.7 µM, the GI50 (OVCAR-4 ovarian) was 4.91 µM and the TGI (OVCAR-4 ovarian) was > 100 µM. For the same molecule, the GI50 (SK-OV-3 ovarian) was 2.95 µM, the TGI (SK-OV-3 ovarian) was > 100 µM and the GI50 (OVCAR-5 ovarian) was 14.8 µM. For the same molecule, the TGI (OVCAR-5 ovarian) was > 100 µM, the GI50 (SN12C renal) was 4.97 µM and the TGI (SN12C renal) was > 100 µM. The GI50 (HT29 colon) was 3.43 µM, the TGI (HT29 colon) was > 100 µM and the GI50 (NCI-H226 lung) was 5.13 µM. For the same molecule, the TGI (NCI-H226 lung) was > 100 µM, the GI50 (PC-3 prostate) was 3.63 µM and the TGI (PC-3 prostate) was > 100 µM. For the same molecule, the GI50 (RXF 393 renal) was 3.87 µM, the TGI (RXF 393 renal) was > 100 µM and the GI50 (DU-145 prostate) was 2.7 µM. It also gave a TGI (DU-145 prostate) of 7.21 µM.
